According to publication PMC8745124, “The Potential Antimicrobial Action of Human Mucin 7 15-Mer Peptide and Its Metal Complexes” (International Journal of Molecular Sciences, 2021):
Converted amounts (≈) assume the structure as drawn. Where two headings read alike, the source gives them in different places. No end group written: not given here.

Assays:
E. faecalis = conditions: Table S7, cited from earlier work
Source text: (§1) Values are the average of three independent experiments performed in three wells.

E. coli = conditions: Table S7, cited from earlier work
Experimental: (§2) page 13: Table S5. Experimentally measured molar extinction coefficients (ε) and absorbance maxima (λmax) for L1, L2 and L3 which concentration was determined by UV-Vis. Solvent HEPES buffer (50 mM. I = 0.16 M).Path length = 1 cm.T = 25°C. λmax [nm] ε [M-1cm-1] L1 275.5 1076 L2 280 1062 L3 275.5 1077 Table S6. Antimicrobial activity of the […] (L1), […] (L2) and […] (L3) and their metal(II) complexes against pathogenic microorganisms. Values are the average of three independent experiments performed in three wells. Ligands/ E. faecalis S. epidermidis E. coli ...

P. aeruginosa = conditions: Table S7, cited from earlier work
Experimental: as §2

E. faecalis ATCC 29212 = format: cell-based, Enterococcus faecalis; conditions: ATCC 29212, 24 h
Experimental: (§3) The antimicrobial properties of three peptides (L1, L2, L3) and metal(II) complexes (molar ratio, 1:1) were tested on human pathogenic strains. E. coli ATCC 25922, E. faecalis ATCC 29212, P. aeruginosa ATCC 15422, and S. epidermidis KCTC 1917 were grown at 37 °C in Luria Bertani Broth (LB; 10 g/L bacto-tryptone, 5 g/L bacto-yeast extract, 10 g/L NaCl). The C. albicans […] was grown in a 6.7 g/L yeast nitrogen base (YNB) broth (Difco Laboratories) containing 2% D-glucose at 37 °C. The minimum inhibitory concentration (MIC) values of the peptides and their metal(II) complexes were determined using the microdilution broth method in 96-well microplates (Sarstedt, Nümbrecht, Germany). The serial dilutions of tested compounds (0–500 µM) were dissolved in LB medium for bacteria and YNB medium for C. albicans. The inoculum (2.5 µL) of each strain (10^8 CFU mL^−1) was placed into each well containing 200 µL of serial dilutions of the tested peptides and their metal(II) complexes. […] Bacteria and C. albicans incubated with metal ions were used as additional controls. After 24 h of incubation at 37 °C, the optical density at 600 nm of each well was measured using a multifunctional microplate reader (Synergy™ H1, BioTek, Winooski, VT, USA).

S. epidermidis KCTC 1917 = format: cell-based, Staphylococcus epidermidis; conditions: KCTC 1917, 24 h
Experimental: as §3

E. coli ATCC 25922 = format: cell-based, Escherichia coli; conditions: ATCC 25922, 24 h
Experimental: as §3

P. aeruginosa ATCC 15422 = format: cell-based, Pseudomonas aeruginosa; conditions: ATCC 15422, 24 h
Experimental: as §3

C. albicans ATCC 10231 = format: cell-based, Candida albicans; conditions: ATCC 10231, 24 h
Experimental: as §3

[1] = format: physicochemical
Source text: Distribution profiles for Cu(II) and Zn(II) complexes calculated based on titrations are depicted in Figure 1. Complexes of L1 with Zn(II) were precipitated in the experimental concentration used for potentiometry above pH 9, while for L2 and L3 complexes were insoluble above pH 7. For copper complexes, precipitation was not observed at any experimental pH value.
Based on the experimental curves, it was possible to determine stability constants only for some complex species (ZnH3L and ZnHL for L2 and ZnH4L, ZnH3L and ZnHL for L3 ligand). […] Based on the competition diagram, Figure 3A, it could be assumed that all His residues are involved in the coordination of the Zn(II) ion directly or indirectly through the steric effect. The L3 ligand has the best affinity to metal ions already in an acidic environment and throughout the range of the tested pH. […] It could be concluded that although L1 and L2 have the same number of histidyl residues, their mutual position affects the effectiveness of metal ion binding at a given pH value. Above pH 6.5, L1 binds the Zn(II) with higher stability than that observed for L2.
Zinc complexes were not soluble above pH 9 and 7 for L1 and L2, L3, respectively. It was surprising that upon contact with the […] n-octanol phase, Zn(II)/L1 complexes formed in the water were precipitated, which prevented further measurement of the partition coefficient logPo/w. This undoubtedly proves the hydrophilic nature of Zn (II)/L1 complexes. In the case of zinc complexes of the remaining ligands, no precipitate was observed, so experimental values of logPo/w were determined. In comparison to free ligands, the lipophilicity of Cu(II) complexes is lower for all studies’ systems. For L2 and L3, and their Zn(II) complex forms, we observed a slight difference in the partition coefficient concerning the ligands themselves, a slight decrease in lipophilicity in the case of Zn(II)/L2 complexes, and an increase in the case of Zn(II)/L3. […]

C. albicans = tested on: C. albicans; set-up: method as in 2 sources, one per row (each row's own in cited_ref): ref [33] (a number printed in a supplementary file, which may have a reference list of its own: not looked up in the article's list) ||| ref [36] (a number printed in a supplementary file, which may have a reference list of its own: not looked up in the article's list); conditions: Table S7; ref [36]; cited from earlier work
Source text: as §1

[2] = target: His14 (position 14, YGLLAHQ----); test: potentiometry; conditions: 25 ± 0.2 °C (298 K), I = 0.1 M (KCl), none (HCl/KOH titration under Ar)
His8 (position 8, …) [3] = test: potentiometry; conditions: 25 ± 0.2 °C (298 K); I = 0.1 M (KCl); none (HCl/KOH titration under Ar); free peptide, no metal; ligand 1.0 × 10^-3 M (the Table 2 caption says 0.0005 M)
[4] = target: Lys1 (position 1, -----KSAFEL); test: potentiometry; conditions: 25 ± 0.2 °C (298 K), I = 0.1 M (KCl), none (HCl/KOH titration under Ar)
[5] = target: Nterm1 (position 1, -----KSAFEL); test: potentiometry; conditions: 25 ± 0.2 °C (298 K); I = 0.1 M (KCl); none (HCl/KOH titration under Ar); free peptide, no metal; ligand 1.0 × 10^-3 M (the Table 2 caption says 0.0005 M)
Tyr9 (position 9, …) [6] = test: potentiometry; conditions: 25 ± 0.2 °C (298 K), I = 0.1 M (KCl), none (HCl/KOH titration under Ar)
[7] = target: His3 (position 3, ---KSHFELPH); test: potentiometry; conditions: 25 ± 0.2 °C (298 K); I = 0.1 M (KCl); none (HCl/KOH titration under Ar); free peptide, no metal; ligand 1.0 × 10^-3 M (the Table 2 caption says 0.0005 M)
His8 (position 8, …) [8] = test: potentiometry; conditions: 25 ± 0.2 °C (298 K); I = 0.1 M (KCl); none (HCl/KOH titration under Ar); free peptide, no metal; ligand 1.0 × 10^-3 M (the Table 2 caption says 0.0005 M); remark: listed apart in the source
[9] = target: Lys1 (position 1, -----KSHFEL); test: potentiometry; conditions: 25 ± 0.2 °C (298 K), I = 0.1 M (KCl), none (HCl/KOH titration under Ar)
[10] = target: Nterm1 (position 1, -----KSHFEL); test: potentiometry; conditions: 25 ± 0.2 °C (298 K); I = 0.1 M (KCl); none (HCl/KOH titration under Ar); free peptide, no metal; ligand 1.0 × 10^-3 M (the Table 2 caption says 0.0005 M)
[11] = target: His3 (position 3, ---KSHFELPA); test: potentiometry; conditions: 25 ± 0.2 °C (298 K); I = 0.1 M (KCl); none (HCl/KOH titration under Ar); free peptide, no metal; ligand 1.0 × 10^-3 M (the Table 2 caption says 0.0005 M)
Tyr9 (position 9, …) [12] = test: potentiometry; conditions: 25 ± 0.2 °C (298 K), I = 0.1 M (KCl), none (HCl/KOH titration under Ar); remark: listed apart in the source
[13] = free peptide, no metal, ligand 1.0 × 10^-3 M (the Table 2 caption says 0.0005 M)
[14] = Cu(II)-bound mononuclear complex (4N coordination), metal:ligand 1:1.1 and 1:2

For Gramicidin S, the MIC (E. faecalis; ref [35]) is listed as 6.25 mg/L, the MIC (E. coli; ref [35]) is listed as 50 mg/L and the MIC (P. aeruginosa; ref [35]) is listed as 50 mg/L.

KSAFELPHYGLLAHQ [L1] showed an MIC (E. faecalis ATCC 29212) of 145 ± 3.1 µM, an MIC (S. epidermidis KCTC 1917) of 132 ± 1.6 µM and an MIC (E. coli ATCC 25922) of 412 ± 2.4 µM. For the same molecule, the MIC (P. aeruginosa ATCC 15422) was 285 ± 2.6 µM, the MIC (C. albicans ATCC 10231) was 436 ± 2.4 µM and the solubility in water [1] was “soluble in water”.

In the case of KSHFELPAYGLLAHQ [L2], the MIC (E. faecalis ATCC 29212) is reported as 163 ± 2.2 µM, the MIC (S. epidermidis KCTC 1917) is reported as 147 ± 1.6 µM and the MIC (E. coli ATCC 25922) is reported as 416 ± 0.5 µM. For the same molecule, the MIC (P. aeruginosa ATCC 15422) was 302 ± 2.8 µM, the MIC (C. albicans ATCC 10231) was 469 ± 1.4 µM and the solubility in water [1] was “soluble in water”.

In the case of Clavanin B, the MIC (E. faecalis; ref [36]) is given as 256 mg/L, the MIC (E. coli; ref [36]) is given as 256 mg/L and the MIC (C. albicans) is given as 64 mg/L.

For KSHFELPHYGLLAHQ [L3], the MIC (E. faecalis ATCC 29212) was 241 ± 1.6 µM, the MIC (S. epidermidis KCTC 1917) was 210 ± 2.6 µM and the MIC (E. coli ATCC 25922) was > 888 mg/L. The MIC (P. aeruginosa ATCC 15422) was 313 ± 2.5 µM, the MIC (C. albicans ATCC 10231) was > 888 mg/L and the solubility in water [1] was “soluble in water”.

For `O=C(O)c1cn(C2CC2)c2cc(N3CCNCC3)c(F)cc2c1=O` [Ciprofloxacin], the MIC (E. coli; ref [33]) is given as 0.08 mg/L (≈ 0.241 µM) and the MIC (P. aeruginosa; ref [33]) is given as 0.16 mg/L (≈ 0.483 µM).

In the case of `CNC(C)C1CCC(N)C(OC2C(N)CC(N)C(OC3OCC(C)(O)C(NC)C3O)C2O)O1` (stereo not shown) [Gentamicin], the MIC (E. faecalis; ref [33]) is given as ≥ 2.50 mg/L, the MIC (E. coli; ref [33]) is given as ≥ 2.50 mg/L and the MIC (P. aeruginosa; ref [33]) is given as 0.31 mg/L (≈ 0.649 µM).

For Clavanin D, the MIC (E. faecalis; ref [36]) is given as 128 mg/L, the MIC (E. coli; ref [36]) is given as 64 mg/L and the MIC (C. albicans) is given as 16 mg/L.

In the case of Polymyxin, the MIC (E. faecalis; ref [34]) is given as > 16 mg/L, the MIC (E. coli; ref [34]) is given as 1 mg/L and the MIC (P. aeruginosa; ref [34]) is given as 1 mg/L.

KSAFELPHYGLLAHQ [MUC7 15-mer peptide analogue L1 (KSAFELPHYGLLAHQ) (Homo sapiens (synthetic peptide); H3A)] showed a pKa [2, 13] of 6.62, a pKa (His8 (position 8, …) [3]) of 5.98 and a pKa [4, 14] of 10.86. The pKa [4, 13] was 9.92, the pKa [5] was 7.59 and the pKa (Tyr9 (position 9, …) [6]; [14]) was 9.61. The pKa (Tyr9 (position 9, …) [6]; [13]) was 9.44.

With KSHFELPHYGLLAHQ [MUC7 15-mer peptide L3 (KSHFELPHYGLLAHQ, mother peptide) (Homo sapiens (synthetic peptide))] the pKa [2, 13] was 6.75, the pKa [7] was 5.40 and the pKa (His8 (position 8, …) [8]) was 6.34. The pKa [9, 14] was 9.85, the pKa [9, 13] was 10.01 and the pKa [10] was 7.36. For the same molecule, the pKa (Tyr9 (position 9, …) [6]; [14]) was 9.62 and the pKa (Tyr9 (position 9, …) [6]; [13]) was 9.35.

KSHFELPAYGLLAHQ [MUC7 15-mer peptide analogue L2 (KSHFELPAYGLLAHQ) (Homo sapiens (synthetic peptide); H8A)] showed a pKa [2, 14] of 6.46, a pKa [2, 13] of 6.72 and a pKa [11] of 5.62. For the same molecule, the pKa [9, 14] was 10.06, the pKa [9, 13] was 10.50 and the pKa [10] was 7.42. It also gave a pKa (Tyr9 (position 9, …) [12]; [14]) of 9.43 and a pKa (Tyr9 (position 9, …) [12]; [13]) of 9.58.
